Laboratory results: patent US5700817A, “Cyclic lipid derivatives as potent PAF antagonists” (Pohang Iron & Steel Co., Ltd., priority 1993, dated 1997)
Values belong to the compound of their own block, whether it stands above or below them.

Assays:
[1] = tested on: PAF-induced [^14 C]serotonin release, rabbit platelets; experiment: Inhibitory action on PAF-induced [14C]-serotonin release from rabbit platelets; type: cell-based, New Zealand white male rabbits; conditions: Oryctolagus cuniculus, Platelet, PAF 1×10^-9 M; for inhibition at 0.05 µM: test compound 5 × 10^-8 M; for inhibition at 0.005 µM: test compound 5 × 10^-9 M
Protocol: The following pharmacological test examples explain the effects of the present invention in a more concrete manner.
Inhibitory action on PAF-induced [^14 ]-serotonin release
Blood was collected from the hearts of conscious New Zealand white male rabbits weighing 2 to 3 kg. The blood was immediately subjected to a centrifuge at 1400 rpm for 10 minutes to obtain platelet rich plasma(PRP).PRP was incubated with a trace amount of [^14 C]-serotonin for 20 minutes at 22° C. Prelabelled platelets were prepared by centrifugation at 3500 rpm for 10 minutes. The test compound was added to 80 μl of [^14 C]serotonin-labeled platelets in plastic test tubes, and the mixture was incubated for 2 minutes. PAF (1×10 ^-9 M) was then added to the reaction mixture and incubated for additional 2 minutes at which time 10 μl of cold formaldehyde was added to stop the reactions. The tubes were immediately cooled to 4° C. and centrifuged at 12000 rpm for 2 minutes. The supernatants (80 μl) were assayed for percentage of [^14 C]serotonin release by the conventional methods of measuring ^14 C counts.

[2] = biological target: T1, PAF receptor (Oryctolagus cuniculus, UniProt G1TEI7); experiment: PAF Receptor Binding Assay ([3H]C18-PAF, rabbit platelet membranes)
T1 construct: Platelet membranes were prepared by centrifugation and washing; tissue Pel-Freez (Rogers, AR), supplier of the citrated whole rabbit blood; host or cells: rabbit platelet membranes
Protocol: PAF Receptor Binding Assay Citrated whole rabbit blood was obtained from Pel-Freez(Rogers, AR). Rabbit platelets were prepared by centrifugation and washing. The platelets were lysed by freeze-thawing and sonification; Platelet membranes were prepared by centrifugation and washing. Final membrane preparation were stored frozen in 10 mM Tris/5 mM MgCl2 /2 mM EDTA (TME buffer, pH 7.0) with 0.25M sucrose added for membrane stabilization. […] The final volume of the assay was 1001 μl. The assay was conducted in Millititer-GV™(Millipore Corp.) filtration plates; incubation time was for 60 minutes at room temperature (22°-23° C.). […] The filters were dried and removed. The bound radioactivity was quantiated with a Berthold TLC-Linear Analyzer model LB2842. […] Experiments were repeated at least once. […] Ki values of inhibitory binding constants were calculated according to the methods of the literature[Cheng et al., Biochem.

[3] = tested on: PAF-induced platelet aggregation, rabbit platelets; experiment: Inhibitory action on PAF-induced platelet aggregation (platelet-rich plasma); type: cell-based, New Zealand male rabbits; conditions: Oryctolagus cuniculus, PAF 5×10^-9 M, 37° C., turbidimetry, rabbit PRP
Protocol: Blood was collected from the hearts of conscious New Zealand male rabbits weighing 2 to 3 kg using citric acid as an anticoagulant (one volume part of 3% citric acid relative to 9 volume parts of the whole blood). A platelet-rich plasma(PRP) was prepared by centrifugation at 1000 rpm for 10 minutes. The remaining blood after collecting the PRP was subjected to a centrifuge at 3000 rpm for 10 minutes to obtain platelet poor plasma(PPP). PRP was diluted with PPP to adjust the number of platelets to about 3×10^5 /μl. Solution of test compound (30 μl) was added to the PRP(270 μl), and after incubation for 2 minutes at 37° C., 30 μl aliquot of PAF(5×10^-9 M) was added. Platelet aggregation was then examined by means of turbidimetry [Born, Nature, 194, 927(1962)] with dual channel aggregometer (Chrono-Log. Corp., Havertown, Pa.). As the control, physiological saline without test sample was used. The platelet aggregation inhibiting activities of the test sample are expressed as IC50, that is the concentration of the compound at which 50% of the aggregation is inhibited.

T1 sequence (G1TEI7 1-342): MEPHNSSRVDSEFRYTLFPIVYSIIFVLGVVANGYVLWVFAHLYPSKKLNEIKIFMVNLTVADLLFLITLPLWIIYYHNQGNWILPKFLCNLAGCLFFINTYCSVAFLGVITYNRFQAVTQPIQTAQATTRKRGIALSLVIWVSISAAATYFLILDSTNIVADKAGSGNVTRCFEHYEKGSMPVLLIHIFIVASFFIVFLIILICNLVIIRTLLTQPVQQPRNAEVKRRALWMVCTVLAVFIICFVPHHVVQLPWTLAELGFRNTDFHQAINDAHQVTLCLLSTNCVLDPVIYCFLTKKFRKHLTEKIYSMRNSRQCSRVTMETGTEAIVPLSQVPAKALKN

Structure (SMILES): CCCCCCCCCCCCCCCCOC[C@H]1C[C@@H](COC(=O)N(Cc2cccc[n+]2CC)C(C)=O)O1 (relative stereo) [Example 1, cis-2-[[N-Acetyl-N-[[[2-[(hexadecyloxy)methyl]-4-oxetanyl]methoxy]carbonyl]amino]methyl]-1-ethyl-pyridinium iodide]
inhibition at 0.2 µM ([1]; test compound 2 × 10^-7 M): 90%

Structure (SMILES): CCCCCCCCCCCCCCCCCCNC(=O)OC[C@@H]1C[C@H](COC(=O)N(Cc2cccc[n+]2CC)C(C)=O)O1 (relative stereo) [Example 3, cis-2-[[N-Acetyl-N-[[[4-[[(octadecylcarbamoyl)oxy]methyl]-2-oxetanyl]methoxy]carbonyl]amino]methyl]-1-ethyl-pyridinium iodide]
inhibition at 0.05 µM [1]: 85%

Structure (SMILES): CCCCCCCCCCCCCCCCCCNC(=O)OC[C@H]1C[C@H](COC(=O)N(Cc2cccc[n+]2CC)C(C)=O)O1 (relative stereo) [Example 5, trans-2-[[N-Acetyl-N-[[[4-[[(octadecylcarbamoyl)oxy]methyl]-2-oxetanyl]methoxy]carbonyl]amino]methyl]-1-ethyl-pyridinium iodide]
inhibition at 0.05 µM [1]: 95% | inhibition at 0.005 µM [1]: 70%

Ki [2]: 34 nM
Structure (SMILES): CCCCCCCCCCCCCCCCCCNC(=O)OC[C@H]1C[C@H](COC(=O)N(Cc2cccc[n+]2CC)C(=O)c2ccccc2OC)S1 (relative stereo) [Example 30, trans-2-[[N-(2-Methoxy)benzoyl-N-[[[4-[[(octadecylcarbamoyl)oxy]ethyl]-2-thietanyl]methoxy]carbonyl]amino]-1-ethyl-pyridinium chloride]

IC50 [3]: 19 nM
Structure (SMILES): CCCCCCCCCCCCCCCCOC[C@H]1C[C@H](COC(=O)N(Cc2cccc[n+]2CC)C(=O)c2ccccc2OC)S1 (relative stereo) [Example 33, trans-2-[[N-(2-Methoxy)benzoyl-N-[[[4-[(hexadecyloxy)methyl]-2-thietanyl]methoxy]carbonyl]amino]methyl]-1-ethyl-pyridinium chloride]

Ki [2]: 104 nM
Structure (SMILES): CCCCCCCCCCCCCCCCCCNC(=O)OC[C@H]1C[C@H](COC(=O)N(Cc2cccc[n+]2CC)C(C)=O)N1C(=O)c1ccccc1 (relative stereo) [Example 44, 2-[[N-Acetyl-N-[[[4-[[(octadecylcarbamoyl)oxy]methyl]-1-benzoylazetidine-2-yl]methoxy]carbonyl]amino]methyl]-1-ethyl-pyridinium chloride]

Structure (SMILES): CCCCCCCCCCCCCCCCCCNC(=O)OCC1(COC(=O)N(Cc2cccc[n+]2CC)C(C)=O)COC1 [Example 6, 2-[[-Acetyl-N-[[[3-[[(octadecylcarbamoyl)oxy]methyl]-3-oxetanyl]methoxy]carbonyl]amino]methyl]-1-ethyl-pyridinium iodide]
inhibition at 0.005 µM [1]: 75%

Structure (SMILES): CCCCCCCCCCCCCCCCCCNC(=O)OCC1(COC(=O)CCCCC[n+]2ccsc2)COC1 [Example 13, 3-[5-[[[3-[[(Octadecylcarbamoyl)oxy]methyl]-3-oxetanyl]methoxy]carbonyl]pentyl]thiazolium bromide]
inhibition at 0.05 µM [1]: 85%
